# Data as given in US9765105B2, “Macrolide compound” (Pulike Biological Engineering, Inc., priority 2013, dated 2017).
# Key:
# Assay in all cases: in vitro susceptibility, MIC by mini broth dilution
# Type in all cases: cell-based
# [1] = system: Staphylococcus aureus CVCC26003; conditions: strain CVCC26003
# How it was run: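 S. aureus CVCC26003 was revived and subcultured twice, 20 h each at 35° C, on solid medium, then diluted 1:200 in CAMHB liquid medium. Compounds received an 11-step two-fold DMSO dilution in parallel duplicate rows. MIC was read by mini broth dilution per NCCLS guidance.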
# [2] = system: Streptococcus equines CVCC556; conditions: strain CVCC556
# How it was run: (§1)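 Veterinary bacterial strains were grown twice on solid medium at 35 °C for 20 h. Inocula were diluted 1:200 in broth and tested against 11 two-fold compound dilutions (DMSO), in paired rows, by mini broth dilution per NCCLS guidance. MIC was the readout.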
# Haemophilus parasuis = system: Haemophilus parasuis
# How it was run: as §1
# [3] = system: Pasteurella multocida CVCC399; conditions: strain CVCC399
# How it was run: as §1
# [4] = system: Actinobacillus pleuropneumoniae CVCC262; conditions: strain CVCC262
# How it was run: as §1
Structure (SMILES),"MIC values, Staphylococcus aureus CVCC26003 [1] [ug/mi]","MIC values, Streptococcus equines CVCC556 [2] [ug/mi]","MIC values, Haemophilus parasuis (Haemophilus parasuis) [ug/mi]","MIC values, Pasteurella multocida CVCC399 [3] [ug/mi]","MIC values, Actinobacillus pleuropneumoniae CVCC262 [4] [ug/mi]"
CCCN1C[C@H](C)[C@@H](O)[C@](C)(O)[C@@H](CC)OC(=O)[C@H](C)[C@@H](O[C@H]2C[C@@](C)(OC)[C@](O)(CNC3CC3)[C@H](C)O2)[C@H](C)[C@@H](O[C@@H]2O[C@H](C)C[C@H](N(C)C)[C@H]2O)[C@](C)(O)C[C@H]1C [syzx-217],0.25,0.25,0.25,0.5,0.25
CCCN1C[C@H](C)[C@@H](O)[C@](C)(O)[C@@H](CC)OC(=O)[C@H](C)[C@@H](O[C@H]2C[C@@](C)(OC)[C@](O)(CNc3cccnc3Cl)[C@H](C)O2)[C@H](C)[C@@H](O[C@@H]2O[C@H](C)C[C@H](N(C)C)[C@H]2O)[C@](C)(O)C[C@H]1C [syzx-218],2,0.25,4,8,4
CCCN1C[C@H](C)[C@@H](O)[C@](C)(O)[C@@H](CC)OC(=O)[C@H](C)[C@@H](O[C@H]2C[C@@](C)(OC)[C@](O)(CNC(=O)c3ccccc3)[C@H](C)O2)[C@H](C)[C@@H](O[C@@H]2O[C@H](C)C[C@H](N(C)C)[C@H]2O)[C@](C)(O)C[C@H]1C [syzx-219],2,0.5,4,8,4
CCCN1C[C@H](C)[C@@H](O)[C@](C)(O)[C@@H](CC)OC(=O)[C@H](C)[C@@H](O[C@H]2C[C@@](C)(OC)[C@](O)(CNc3nc(OC)cc(OC)n3)[C@H](C)O2)[C@H](C)[C@@H](O[C@@H]2O[C@H](C)C[C@H](N(C)C)[C@H]2O)[C@](C)(O)C[C@H]1C [syzx-222],4,0.25,2,8,2
CCCN1C[C@H](C)[C@@H](O)[C@](C)(O)[C@@H](CC)OC(=O)[C@H](C)[C@@H](O[C@H]2C[C@@](C)(OC)[C@](O)(CNc3cccc(Br)c3)[C@H](C)O2)[C@H](C)[C@@H](O[C@@H]2O[C@H](C)C[C@H](N(C)C)[C@H]2O)[C@](C)(O)C[C@H]1C [syzx-223],0.25,0.25,0.25,0.5,0.25
CCCN1C[C@H](C)[C@@H](O)[C@](C)(O)[C@@H](CC)OC(=O)[C@H](C)[C@@H](O[C@H]2C[C@@](C)(OC)[C@](O)(CNc3cc(F)ccc3[N+](=O)[O-])[C@H](C)O2)[C@H](C)[C@@H](O[C@@H]2O[C@H](C)C[C@H](N(C)C)[C@H]2O)[C@](C)(O)C[C@H]1C [syzx-226],2,0.25,4,8,4

# Continued, values first:
"MIC values, Staphylococcus aureus CVCC26003 [1] [ug/mi]","MIC values, Streptococcus equines CVCC556 [2] [ug/mi]","MIC values, Haemophilus parasuis (Haemophilus parasuis) [ug/mi]","MIC values, Pasteurella multocida CVCC399 [3] [ug/mi]","MIC values, Actinobacillus pleuropneumoniae CVCC262 [4] [ug/mi]",Structure (SMILES)
2,0.5,4,8,4,CCCN1C[C@H](C)[C@@H](O)[C@](C)(O)[C@@H](CC)OC(=O)[C@H](C)[C@@H](O[C@H]2C[C@@](C)(OC)[C@](O)(CNc3ccc(I)cc3)[C@H](C)O2)[C@H](C)[C@@H](O[C@@H]2O[C@H](C)C[C@H](N(C)C)[C@H]2O)[C@](C)(O)C[C@H]1C [syzx-227]
2,0.25,1,2,1,CCCN1C[C@H](C)[C@@H](O)[C@](C)(O)[C@@H](CC)OC(=O)[C@H](C)[C@@H](O[C@H]2C[C@@](C)(OC)[C@](O)(CNc3ccc([N+](=O)[O-])cc3[N+](=O)[O-])[C@H](C)O2)[C@H](C)[C@@H](O[C@@H]2O[C@H](C)C[C@H](N(C)C)[C@H]2O)[C@](C)(O)C[C@H]1C [syzx-228]
4,0.25,4,16,4,CCCN1C[C@H](C)[C@@H](O)[C@](C)(O)[C@@H](CC)OC(=O)[C@H](C)[C@@H](O[C@H]2C[C@@](C)(OC)[C@](O)(CNc3ccc(C)cc3C)[C@H](C)O2)[C@H](C)[C@@H](O[C@@H]2O[C@H](C)C[C@H](N(C)C)[C@H]2O)[C@](C)(O)C[C@H]1C [syzx-229]
4,0.25,2,8,2,CCCN1C[C@H](C)[C@@H](O)[C@](C)(O)[C@@H](CC)OC(=O)[C@H](C)[C@@H](O[C@H]2C[C@@](C)(OC)[C@](O)(CNc3cc(C(F)(F)F)cc(C(F)(F)F)c3)[C@H](C)O2)[C@H](C)[C@@H](O[C@@H]2O[C@H](C)C[C@H](N(C)C)[C@H]2O)[C@](C)(O)C[C@H]1C [syzx-230]
0.25,0.25,0.25,0.5,0.25,CCCN1C[C@H](C)[C@@H](O)[C@](C)(O)[C@@H](CC)OC(=O)[C@H](C)[C@@H](O[C@H]2C[C@@](C)(OC)[C@](O)(CNc3ccc(Cl)cc3Cl)[C@H](C)O2)[C@H](C)[C@@H](O[C@@H]2O[C@H](C)C[C@H](N(C)C)[C@H]2O)[C@](C)(O)C[C@H]1C [syzx-231]
2,0.25,4,8,4,CCCN1C[C@H](C)[C@@H](O)[C@](C)(O)[C@@H](CC)OC(=O)[C@H](C)[C@@H](O[C@H]2C[C@@](C)(OC)[C@](O)(CNc3cc(Cl)ccc3C)[C@H](C)O2)[C@H](C)[C@@H](O[C@@H]2O[C@H](C)C[C@H](N(C)C)[C@H]2O)[C@](C)(O)C[C@H]1C [syzx-234]
2,0.25,4,8,4,CCCN1C[C@H](C)[C@@H](O)[C@](C)(O)[C@@H](CC)OC(=O)[C@H](C)[C@@H](O[C@H]2C[C@@](C)(OC)[C@](O)(CNc3cc(Cl)nc(Cl)n3)[C@H](C)O2)[C@H](C)[C@@H](O[C@@H]2O[C@H](C)C[C@H](N(C)C)[C@H]2O)[C@](C)(O)C[C@H]1C [syzx-237]
